# Experimental data from paper PMC3758303 (PLoS ONE, 2013).
# How the values were obtained:
# [1] = test system: genome-length HCV-RNA (O strain of genotype 1b) replication in Li23-derived ORL8 cells; experiment: ORL8 RL assay; assay type: cell-based, hepatitis C virus; conditions: for EC50: Hepatitis C virus, Li23, HCV strain O, 72 hrs, RL assay
# Protocol: RSc and D7 cells were derived from the cell lines HuH-7 and Li23, respectively, were cultured as described previously, [29]. HuH-7-derived OR6 [13], AH1R [30], and 1B-4R [Ikeda et al., submitted] cells harboring genome-length HCV-RNA and HuH-7-derived polyclonal sOR [31], and RSc-JRN/35B [Ikeda et al., submitted] cells harboring an HCV subgenomic replicon were cultured with medium in the presence of G418 (0.3 mg/ml; Geneticin, Invitrogen, Carlsbad, CA) as described previously. Li23-derived ORL8 [20], ORL11 [20], 1B-4RL [Ikeda et al., submitted], and KAH5RL [Ikeda et al., submitted] cells harboring genome-length HCV-RNA were maintained with medium in the presence of G418 (0.3 mg/ml) as described previously. Li23-derived polyclonal sORL8 and sORL11 cells harboring an HCV replicon, which were established by the transfection of ORN/3-5B/QR,KE,SR RNA into the cured OL8 and OL11 cells, respectively, were also cultured with medium in the presence of G418 (0.3 mg/ml) as described previously. […] Therefore, when HCV-RNA is excluded from the cells or when its level is decreased, the cells are killed in the presence of G418.
# RL assay was performed as described previously, [24]. Briefly, the cells were plated onto 24-well plates (2×10^4 cells per well) in triplicate and then treated with each reagent at several concentrations for 72 hrs. After treatment, the cells were subjected to luciferase assay using the RL assay system (Promega, Madison, WI). The experiments were performed at least in triplicate. From the assay results, the 50% effective concentration (EC50) of each reagent was determined.
# The SI value of each reagent was determined by dividing the CC50 value by the EC50 value.
# [2] = test system: HCV-RNA replication in OR6 cells; experiment: Combination with IFN-α and/or RBV, OR6 RL assay; assay type: cell-based, hepatitis C virus; conditions: 72 hrs
# Text: We examined the anti-HCV activity of N-89 or N-251 in combination with IFN-α using OR6 and ORL8 assay systems. […] However, such an effect was not clear in the OR6 assay (Fig. S4A). […] Therefore, we next examined the combination effect of RBV in the same way as IFN-α using an ORL8 assay. […] Therefore, we further examined the effect of N89 or N-251 in combination with both IFN-α and RBV using an ORL8 assay.
# Supplementary file pone.0072519.s004.tif: Figure S4 Anti-HCV effects of N-89 or N-251 in combination with IFN-α and/or RBV on HCV-RNA replication in OR6 cells. […] (A) Effect of N-89 or N-251 in combination with IFN-α on OR6 assay. OR6 cells were treated with N-89 (upper panel) or N-251 (lower panel) in combination with IFN-α for 72 hrs and subjected to RL assay. (B) Effect of N-89 or N-251 in combination with RBV on OR6 assay. OR6 cells were treated with N-89 (upper panel) or N-251 (lower panel) in combination with RBV for 72 hrs and subjected to RL assay. (C) Effect of N-89 or N-251 in combination with IFN-α and RBV on OR6 assay. OR6 cells were treated with N-89 (upper panel) or N-251 (lower panel) in combination with IFN-α and RBV for 72 hrs and subjected to RL assay. (TIF) Click here for additional data file.
# [3] = WST-1 cell proliferation assay, sORL8 cells; assay type: cell-based; conditions: human
# Protocol: The WST-1 cell proliferation assay was performed as described previously. Briefly, The cells were plated onto 96-well plates (1×10^3 cells per well) in triplicate and then treated with each reagent at several concentrations for 72 hrs. After treatment, the cells were subjected to the WST-1 cell proliferation assay (Takara Bio, Otsu, Japan) according to the manufacturer’s protocol. This assay is based on the enzymatic cleavage of the tetrazolium salt WST-1 to formazan by cellular mitochondrial dehydrogenases present in viable cells. Therefore, there are […] the value of the WST-1 assay becomes zero. The experiments were performed at least in triplicate. From the assay results, the 50% cytotoxic concentration (CC50) of each reagent was determined.
# [4] = test system: HCV-JFH-1 strain (genotype 2a) in HuH-7-derived RSc cells; experiment: JFH-1 reporter assay system, RSc cells; assay type: cell-based, hepatitis C virus; conditions: RSc cells inoculated with JR/C5B/BX-2 supernatant, RL assay
# Protocol: HCV infection was performed as described previously. RSc and D7 cells were inoculated with supernatant from RSc cells replicating JR/C5B/BX-2 [29].
# Figure 2 Characterization of anti-HCV activities of N-89 and N-251. (A) Schematic gene organization of authentic HCV-RNA (HCV-O/RLGE). The positions of four adaptive mutations - Q1112R, P1115L, E1202G, and K1609E - are indicated by a black star. (B) N-89 and N-251 inhibited authentic HCV-RNA replication. The cells harboring HCV-O/RLGE RNA [19] were treated with N-89 (left panel) and N-251 (right panel) for 72 hrs, followed by real-time LightCycler PCR (black circles in the upper panel) and WST-1 assay (open triangles in the upper panel). The relative value (%) calculated at each point, when the level in non-treated cells was assigned as 100%, is presented here. Data are expressed as the means±standard deviation of triplicate assays. Western blot analysis (lower panels) was performed as described in Fig. 1B. […]
# We next examined whether N-89 and N-251 worked in an HCV production system using HCV-JFH-1 strain (genotype 2a). […] To clarify whether anti-HCV activity depends on the difference of genotype or assay model, we evaluated the activities of N-89 and N-251 using RSc-JRN/35B [Ikeda et al., submitted] cells harboring a subgenomic HCV-JFH-1 replicon as an additional assay.
Compound,EC50 ([1]; ORL8 assay) [nM],anti-HCV effect in combination with IFN-α [2],anti-HCV effect in combination with RBV [2],CC50 at 72 h [3] [nM],anti-HCV activity for the HCV-JFH-1 strain [4],"anti-HCV activity (suppression) ([1]; 1 µM in ORL8 cells, without a decrease in cell viability) [%]",EC99 value ([1]; ORL8 assay) [µM]
"OCCCCCCC1COOC2(CCCCCCCCCCC2)OOC1 [N-251, 6-(1,2,6,7-tetraoxaspiro[7.11]nonadec-4-yl)hexan-1-ol]",100,not clear,additive anti-HCV effect,4100,did not show anti-HCV activity,,
"C1CCCCCC2(CCCCC1)OOCCCOO2 [N-89, 1,2,6,7-Tetraoxaspiro[7.11]nonadecane]",89,not clear,additive anti-HCV effect,1100,did not show anti-HCV activity,> 99,1
